Laboratory results published in ChEMBL document CHEMBL4725372, “Rational Design of Suprastat: A Novel Selective Histone Deacetylase 6 Inhibitor with the Ability to Potentiate Immunotherapy in Melanoma Models” (J Med Chem, 2020).
Active and inactive are the calls of the source. The rule behind the calls is not given here.

Legend:
[1] = tested on: HEK293; assay: Selectivity index, ratio of IC50 for human HDAC6 expressed in HEK293/T17 cells (unknown origin) to human HDAC6 expressed in HEK293/T17 cells; type: cell-based
[2] = tested on: Mus musculus; assay: Immunomodulatory activity in C57BL/6 mouse harboring mouse SM1 cells assessed as increase in natural killer cells at 25 mg/kg, ip dosed 5 days per week before starting 15 mg/kg, ip anti-PD1 immune checkpoint blockade therapy by flow cytometry; type: functional, organism-based; details: time 5.0 day/week
[3] = tested on: SM1; assay: Antitumor activity against mouse SM1 cells transplanted in C57BL/6 mouse assessed as decrease in tumor burden at 25 mg/kg, ip dosed 5 days per week before starting 15 mg/kg, ip anti-PD1 immune checkpoint blockade therapy; type: functional, organism-based; details: time 5.0 day/week
[4] = tested on: HEK293; assay: Selectivity index, ratio of IC50 for human HDAC8 expressed in HEK293/T17 cells (unknown origin) to human HDAC6 expressed in HEK293/T17 cells; type: cell-based
[5] = tested on: Mus musculus; assay: Immunomodulatory activity in C57BL/6 mouse harboring mouse SM1 cells assessed as increase in CD8+ effector T-cells and effector memory cells at 25 mg/kg, ip dosed 5 days per week before starting 15 mg/kg, ip anti-PD1 immune checkpoint blockade therapy by flow cytometry; type: functional, organism-based; details: time 5.0 day/week
[6] = tested on: Mus musculus; assay: Immunomodulatory activity in C57BL/6 mouse harboring mouse SM1 cells assessed as effect on number of F4/80+ CD80+ H2+ antitumor M1 macrophages at 25 mg/kg, ip dosed 5 days per week before starting 15 mg/kg, ip anti-PD1 immune checkpoint blockade therapy by flow cytometry; type: functional, organism-based; details: time 5.0 day/week
[7] = tested on: HEK293; assay: Selectivity index, ratio of IC50 for human HDAC9 expressed in HEK293/T17 cells (unknown origin) to human HDAC6 expressed in HEK293/T17 cells; type: cell-based
[8] = target: Histone deacetylase (Homo sapiens) (UniProt Q13547+O15379+Q9UBN7+Q92769+Q9UQL6+Q8WUI4+Q9BY41+Q96DB2+P56524+Q9UKV0+Q969S8); assay: Inhibition of human HDAC in human WM164 cells increase in acetylated histone H3 levels at 0.1 to 10 uM by immunoblot analysis; type: cell-based; details: dose microM 0.1-10
[9] = tested on: HEK293; assay: Selectivity index, ratio of IC50 for human HDAC2 expressed in HEK293/T17 cells (unknown origin) to human HDAC6 expressed in HEK293/T17 cells; type: cell-based
[10] = Half life in human plasma at 10 uM by LC-MS/MS analysis; type: ADME, cell-free
[11] = Half life in rat liver microsome at 10 uM by LC-MS/MS analysis; type: ADME; details: liver microsomes
[12] = tested on: Mus musculus; assay: Immunomodulatory activity in C57BL/6 mouse harboring mouse SM1 cells assessed as increase in CD8+ central memory cells at 25 mg/kg, ip dosed 5 days per week by flow cytometry; type: functional, organism-based; details: time 5.0 day/week
[13] = tested on: Mus musculus; assay: Immunomodulatory activity in C57BL/6 mouse harboring mouse SM1 cells assessed as increase in M1/M2 macrophages ratio at 25 mg/kg, ip dosed 5 days per week before starting 15 mg/kg, ip anti-PD1 immune checkpoint blockade therapy by flow cytometry; type: functional, organism-based; details: time 5.0 day/week
[14] = Half life in PBS by LC-MS/MS analysis; type: physicochemical
[15] = tested on: Mus musculus; assay: Immunomodulatory activity in C57BL/6 mouse harboring mouse SM1 cells assessed as reduction in F4/80+ CD206+ pro-tumor M2 macrophages at 25 mg/kg, ip dosed 5 days per week by flow cytometry; type: functional, organism-based; details: time 5.0 day/week
[16] = tested on: Mus musculus; assay: Immunomodulatory activity in C57BL/6 mouse harboring mouse SM1 cells assessed as reduction in natural killer T cells at 25 mg/kg, ip dosed 5 days per week before by flow cytometry; type: functional, organism-based; details: time 5.0 day/week
[17] = tested on: SM1; assay: Potentiation of antitumor immune response in C57BL/6 mouse harboring mouse SM1 cells assessed as decrease in tumor burden at 25 mg/kg, ip dosed 5 days per week before starting 15 mg/kg, ip anti-PD1 immune checkpoint blockade therapy measured on day 14; type: functional, organism-based; details: time 14.0 day
[18] = tested on: Mus musculus; assay: Immunomodulatory activity in C57BL/6 mouse harboring mouse SM1 cells assessed as increase in CD8+ effector T-cells and effector memory cells at 25 mg/kg, ip dosed 5 days per week by flow cytometry; type: functional, organism-based; details: time 5.0 day/week
[19] = tested on: HEK293; assay: Selectivity index, ratio of IC50 for human HDAC5 expressed in HEK293/T17 cells (unknown origin) to human HDAC6 expressed in HEK293/T17 cells; type: cell-based
[20] = tested on: Mus musculus; assay: Immunomodulatory activity in C57BL/6 mouse harboring mouse SM1 cells assessed as reduction in F4/80+ CD206+ pro-tumor M2 macrophages at 25 mg/kg, ip dosed 5 days per week before starting 15 mg/kg, ip anti-PD1 immune checkpoint blockade therapy by flow cytometry; type: functional, organism-based; details: time 5.0 day/week
[21] = tested on: Mus musculus; assay: Immunomodulatory activity in C57BL/6 mouse harboring mouse SM1 cells assessed as effect on immunosuppressive T-regs at 25 mg/kg, ip dosed 5 days per week by flow cytometry; type: functional, organism-based; details: time 5.0 day/week
[22] = tested on: HEK293; assay: Selectivity index, ratio of IC50 for human HDAC4 expressed in HEK293/T17 cells (unknown origin) to human HDAC6 expressed in HEK293/T17 cells; type: cell-based
[23] = tested on: Mus musculus; assay: Immunomodulatory activity in C57BL/6 mouse harboring mouse SM1 cells assessed as increase in CD8+ central memory cells at 25 mg/kg, ip dosed 5 days per week before starting 15 mg/kg, ip anti-PD1 immune checkpoint blockade therapy by flow cytometry; type: functional, organism-based; details: time 5.0 day/week
[24] = target: T1, Histone deacetylase 11 (Homo sapiens, UniProt Q96DB2); assay: Inhibition of human HDAC11 expressed in HEK293/T17 cells pre-incubated for 10 mins before […] addition and measured after 30 mins by fluorescence-based assay; type: cell-based
T1 sequence (Q96DB2 whole entry): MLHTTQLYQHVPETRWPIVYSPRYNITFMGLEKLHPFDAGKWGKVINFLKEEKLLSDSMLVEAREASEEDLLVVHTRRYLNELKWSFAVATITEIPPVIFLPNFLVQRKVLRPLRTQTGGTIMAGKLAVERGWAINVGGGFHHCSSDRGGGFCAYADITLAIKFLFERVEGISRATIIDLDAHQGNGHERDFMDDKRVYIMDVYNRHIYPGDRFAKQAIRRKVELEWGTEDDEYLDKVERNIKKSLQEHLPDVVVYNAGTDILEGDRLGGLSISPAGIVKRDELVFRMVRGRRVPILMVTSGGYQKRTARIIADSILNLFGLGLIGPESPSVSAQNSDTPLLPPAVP

[25] = tested on: Mus musculus; assay: Immunomodulatory activity in C57BL/6 mouse harboring mouse SM1 cells assessed as reduction in natural killer T cells at 25 mg/kg, ip dosed 5 days per week before starting 15 mg/kg, ip anti-PD1 immune checkpoint blockade therapy by flow cytometry; type: functional, organism-based; details: time 5.0 day/week
[26] = tested on: Mus musculus; assay: Immunomodulatory activity in C57BL/6 mouse harboring mouse SM1 cells assessed as effect on CD4+ T cells at 25 mg/kg, ip dosed 5 days per week before starting 15 mg/kg, ip anti-PD1 immune checkpoint blockade therapy by flow cytometry; type: functional, organism-based; details: time 5.0 day/week

inhibition [8]: Active
half-life at 10 µM [10]: > 5 h
half-life at 10 µM [11]: 2.95 h
half-life [14]: > 24 h
IC50 [24]: > 50 µM
SMILES: NCc1ccc(NC(=O)N(CCCCO)Cc2ccc(C(=O)NO)cc2)cc1
Ratio IC50 [1]: 1
Activity [2]: Active
TGI [3]: Active
Ratio IC50 [4]: 1250
Activity [5]: Active
Activity [6]: inactive
Ratio IC50 [7]: 15700
Ratio IC50 [9]: 440
Activity [12]: Active
Activity [13]: Active
Activity [15]: Active
Activity [16]: Active
TGI [17]: Active
Activity [18]: Active
Ratio IC50 [19]: 8550
Activity [20]: Active
Activity [21]: inactive
Ratio IC50 [22]: 20600
Activity [23]: Active
Activity [25]: Active
Activity [26]: inactive
